Reference: patent US20220411414A1, “INHIBITORS FOR THE B-CATENIN/B-CELL LYMPHOMA 9 (BCL9) PROTEIN-PROTEIN INTERACTION” (H. LEE MOFFITT CANCER CENTER AND RESEARCH INSTITUTE, INC., priority 2018, published 2022)

What was measured:
β-catenin/E-cadherin = molecular target: T1, β-catenin/E-cadherin (Homo sapiens, UniProt P35222); assay: AlphaScreen selectivity assay, β-catenin/E-cadherin PPI; format: binding; conditions: Table 2, read-out: Ki ± SD β-catenin/E-cadherin
T1 construct: Full-length β-catenin and (residues 1-781) were cloned into a pET-28b vector carrying a C-terminal 6× histidine; made in house; host or cells: E. coli BL21 DE3
T1 sequence (P35222 1-781): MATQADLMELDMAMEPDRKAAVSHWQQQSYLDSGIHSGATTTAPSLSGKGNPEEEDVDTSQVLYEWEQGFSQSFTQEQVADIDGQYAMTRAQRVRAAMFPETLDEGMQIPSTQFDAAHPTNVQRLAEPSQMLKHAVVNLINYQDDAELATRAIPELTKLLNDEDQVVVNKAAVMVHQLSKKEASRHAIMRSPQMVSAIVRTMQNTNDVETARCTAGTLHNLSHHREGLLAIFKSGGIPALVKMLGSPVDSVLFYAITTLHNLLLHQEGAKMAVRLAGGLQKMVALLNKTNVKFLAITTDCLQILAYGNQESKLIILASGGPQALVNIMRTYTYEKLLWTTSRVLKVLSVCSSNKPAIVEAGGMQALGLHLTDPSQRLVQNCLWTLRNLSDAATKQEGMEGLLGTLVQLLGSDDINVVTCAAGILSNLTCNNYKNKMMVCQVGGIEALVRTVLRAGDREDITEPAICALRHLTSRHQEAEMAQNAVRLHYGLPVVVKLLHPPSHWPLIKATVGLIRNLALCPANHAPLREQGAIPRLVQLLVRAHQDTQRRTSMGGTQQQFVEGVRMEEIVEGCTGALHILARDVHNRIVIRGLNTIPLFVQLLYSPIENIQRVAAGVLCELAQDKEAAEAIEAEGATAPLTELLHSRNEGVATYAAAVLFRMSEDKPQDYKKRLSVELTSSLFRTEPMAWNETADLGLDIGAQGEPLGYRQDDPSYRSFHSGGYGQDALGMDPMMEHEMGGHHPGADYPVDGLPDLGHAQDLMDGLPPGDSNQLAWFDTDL
Excerpt: Compounds 4 and 5 were further evaluated with their selectivities for the disruption of β-catenin/BCL9 over β-catenin/E-cadherin interactions using the AlphaScreen selectivity assay (Zhang, M.; Wisniewski, J. A.; Ji, H AlphaScreen selectivity assay for, β-catenin/B-cell lymphoma 9 inhibitors. Anal. Biochen. 2015, 469, 43-53.).
BCL9 peptide synthesis and purification. Human BCL9 (residues 350-375), N-terminally biotinylated human BCL9 (residues 350-375), human E-cadherin (residues 824-877), and N-terminally biotinylated human E-cadherin (residues 824-877) were synthesized by InnoPep Inc. (San Diego, Calif., www.innopep.com). All synthesized peptides were purified by HPLC with purity >95%. […]
For the β-catenin/BCL9 assay, 5 nM of biotinylated BCL9 and 40 nM of His6-tagged β-catenin were incubated in assay buffer at 4° C. for 30 min. […] The IC50 value was determined by nonlinear least-square analysis of GraphPad Prism 5.0. The inhibition constant (Ki) values were derived from the IC50 values using a method reported by Nikolovska-Coleska et al (Nikolovska-Coleska, Z.; Wang, R.; Fang, X.; Pan, H.; Tomita, Y.; Li, P.; Roller, P. P.; Krajewski, K.; Saito, N. G.; Stuckey, J. A.; Wang, S. Development and optimization of a binding assay for the XIAP BIR3 domain using fluorescence polarization, Anal. Biochem. 2004, 332, 261-273.). […] The results were expressed as mean±standard deviation. […]

[1] = system: protein expression of cyclin D1, c-myc, ABC, total β-catenin; assay: Western blot analysis in SW480 cells; format: cell-based; conditions: SW480, 24 h, FIG. 3
Description: Protein expression levels of cyclin D1, c-myc, the active form of β-catenin (ABC), and total β-catenin in SW480 cells were examined by Western blot analysis (FIG. 3). […] Western blotting. SW480 cells at 1×10^6 cells/[…] were treated with different concentrations of 4 for 24 h. Cells were lysed in buffer containing 50 mM Tris (pH 7.4), 150 mM NaCl, 1% Nonidet P-40, 0.5% sodium deoxycholate, 0.1% SDS, and protease inhibitors. After centrifugation at 12,000 rpm for 20 min at 4° C., the supernatant was loaded onto an 8% SDS polyacrylamide gel for electrophoretic analysis. Separated proteins were transferred onto nitrocellulose membranes for immunoblot analysis. The antibodies against total β-catenin (610153, BD Biosciences, most of which is phosphorylated β-catenin and represents the E-cadherin bound pool), the active form of β-catenin (ABC, 05-665, EMD Millipore, dephosphorylated at positions S37 and T41 of β-catenin), cyclin D1 (sc-853, Santa Cruz Biotechnology, Inc.), c-myc (D84C12, Cell Signaling), and β-tubulin (sc-55529, Santa Cruz Biotechnology, Inc) were incubated with the membranes overnight at 4° C. respectively. IRDye 680LT goat anti-mouse IgG (827-11080, LiCOR) or IRDye 800CW goat anti-rabbit IgG (827-08365, LiCOR) was used as the secondary antibody. The images were detected by the Odyssey Infrared Imaging System (LiCOR). Experiments were performed in duplicate.

For Cl.Cl.O=C(Nc1ccc(O[C@@H]2CCNC2)c(-c2cccc(-c3nn[nH]n3)c2)c1)c1ccc(O[C@H]2CCNC2)c(-c2ccc(F)c(F)c2)c1 [Compound 4, 3′,4′-difluoro-6-(((S)-pyrrolidin-3-yl)oxy)-N-(6-(((R)-pyrrolidin-3-yl)oxy)-3′-(2H-tetrazol-5-yl)-[1,1′-biphenyl]-3-yl)-[1,1′-biphenyl]-3-carboxamide dihydrochloride], the Ki (β-catenin/E-cadherin) was > 915 µM, the “E-cadherin-bound β-catenin (total β-catenin)” value [1] was “had no effect” and the “activated β-catenin (ABC) in the cell nucleus” value [1] was “reduced”. The “protein expression level of c-myc” value [1] was “significantly reduced” and the “protein expression level of cyclin D1” value [1] was “significantly reduced”.
